From US8026359B2, “Fungicidal heterocyclic amines” (E.I. du Pont de Nemours and Company, priority 2007, dated 2011)

How the values were obtained:
Format in all cases: in vivo
[1] = test system: Botrytis cinerea; assay: Test F: tomato Botrytis, preventive spray on tomato seedlings; settings: 200 ppm, 100 = 100% disease control, 0 = no control relative to controls; for pest or weed control at 200 ppm: Botrytis cinerea, 120 h, read-out: Test F disease control rating
Method in brief: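 Preventive run-off spray onto tomato seedlings at 200 ppm (equivalent to 500 g/ha) or 40 ppm. Suspensions: compound predissolved in acetone at 3% of final volume, then taken up in acetone/purified water 50/50 containing 250 ppm Trem® 014 surfactant.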

[2] = test system: Septoria tritici; assay: Test D: wheat leaf blotch, preventive spray on wheat seedlings; settings: 200 ppm, 100 = 100% disease control, 0 = no control relative to controls; for pest or weed control at 200 ppm: Zymoseptoria tritici, 504 h, read-out: Test D disease control rating
Method in brief: (§1)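 Compounds dissolved in acetone (3% of final volume), then suspended in 50/50 acetone/purified water with 250 ppm Trem® 014 surfactant. Sprayed to run-off on seedlings as a 200 ppm (equivalent to 500 g/ha) or 40 ppm suspension, preventively.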

[3] = test system: Phytophthora infestans; settings: 200 ppm; 100 = 100% disease control, 0 = no control relative to controls
[4] = test system: Plasmopara viticola; assay: Test L: grape downy mildew, spray after inoculation of grape seedlings; settings: 200 ppm; 100 = 100% disease control, 0 = no control relative to controls
From the text: (§2) General protocol for preparing test suspensions for Tests A-R: The test compounds were first dissolved in acetone in an amount equal to 3% of the final volume and then suspended at the desired concentration (in ppm) in acetone and purified water (50/50 mix) containing 250 ppm of the surfactant Trem® 014 (polyhydric alcohol esters). The resulting test suspensions were then used in tests A-R. In Tests A-M, compounds were sprayed as a 200 ppm test suspension (equivalent to a rate of 500 g/ha) or as a 40 ppm test suspension to the point of runoff on the test plants. In Tests N-R, compounds were sprayed as a 100 g/ha test suspension (equivalent to a rate of 100 ppm) on the test plants at an application volume of 1000 L/ha. Grape seedlings were inoculated with a spore suspension of Plasmopara viticola (the causal agent of grape downy mildew) and incubated in a saturated atmosphere at 20° C. for 24 h. After a short drying period, the test suspension was sprayed to the point of run-off on the grape seedlings and then moved to a growth chamber at 20° C. for 6 days, after which time the test units were placed back into a saturated atmosphere at 20° C. for 24 h. Upon removal, disease ratings were made.

[5] = test system: Puccinia recondita f. sp. tritici; assay: Test B: wheat leaf rust, preventive spray on wheat seedlings; settings: 200 ppm, 100 = 100% disease control, 0 = no control relative to controls; for pest or weed control at 200 ppm: Puccinia recondita, 192 h, read-out: Test B disease control rating
Method in brief: as §1

[6] = test system: Colletotrichum orbiculare; assay: Test I: cucumber Colletotrichum anthracnose, preventive spray on cucumber seedlings; settings: 100 = 100% disease control, 0 = no control relative to controls; for pest or weed control at 200 ppm: Colletotrichum orbiculare, 144 h, read-out: Test I disease control rating; for Test I disease control rating: 200 ppm
Method in brief: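 Preventive foliar spray to run-off on cucumber seedlings, at 200 ppm (stated as equal to 500 g/ha) or 40 ppm. Test suspensions were made in acetone/water 50/50 containing 250 ppm Trem 014, after first dissolving compound in acetone at 3% of final volume.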

[7] = test system: Pythium aphanidermatum; assay: Test M: bluegrass pythium blight, preventive spray on bluegrass seedlings; settings: 200 ppm; 100 = 100% disease control, 0 = no control relative to controls
From the text: (§3) General protocol for preparing test suspensions for Tests A-R: The test compounds were first dissolved in acetone in an amount equal to 3% of the final volume and then suspended at the desired concentration (in ppm) in acetone and purified water (50/50 mix) containing 250 ppm of the surfactant Trem® 014 (polyhydric alcohol esters). The resulting test suspensions were then used in tests A-R. In Tests A-M, compounds were sprayed as a 200 ppm test suspension (equivalent to a rate of 500 g/ha) or as a 40 ppm test suspension to the point of runoff on the test plants. In Tests N-R, compounds were sprayed as a 100 g/ha test suspension (equivalent to a rate of 100 ppm) on the test plants at an application volume of 1000 L/ha. The test suspension was sprayed to the point of run-off on bluegrass seedlings.

[8] = test system: Fusarium graminearum; assay: whole plant or invertebrate; settings: for pest or weed control at 200 ppm: Fusarium graminearum, in Triticum aestivum, 192 h, read-out: Test E disease control rating; for Test E disease control rating: 200 ppm, 100 = 100% disease control, 0 = no control relative to controls
[9] = test system: Erysiphe graminis f. sp. tritici; assay: Test A: wheat powdery mildew, preventive spray on wheat seedlings; settings: 200 ppm, 100 = 100% disease control, 0 = no control relative to controls; for pest or weed control at 200 ppm: Blumeria graminis, 192 h, read-out: Test A disease control rating
Method in brief: as §1

[10] = test system: Rhizoctonia oryzae; assay: Test J: turf brown patch, preventive spray on creeping bent grass seedlings; settings: 200 ppm; 100 = 100% disease control, 0 = no control relative to controls
From the text: as §3, with “creeping bent grass” for “bluegrass”

[11] = test system: Septoria nodorum; assay: Test C: wheat glume blotch, preventive spray on wheat seedlings; settings: 200 ppm, 100 = 100% disease control, 0 = no control relative to controls; for pest or weed control at 200 ppm: Parastagonospora nodorum, 216 h, read-out: Test C disease control rating
Method in brief: as §1

[12] = test system: Plasmopara viticola; assay: Test R: grape downy mildew, preventive spray on grape seedlings; settings: 100 ppm (100 g/ha, 1000 L/ha), inoculated the following day, 100 = 100% disease control, 0 = no control relative to controls
From the text: as §2, with “The test suspension was sprayed on grape seedlings. The following day the” for “Grape”, “h,” for “h. After a short drying period, the test suspension was sprayed to the point of run-off on the grape seedlings and”, “7” for “6”

[13] = test system: Uncinula necator; assay: Test N: grape powdery mildew, preventive spray on grape seedlings; settings: 100 ppm (100 g/ha, 1000 L/ha), inoculated the following day, 100 = 100% disease control, 0 = no control relative to controls
From the text: as §3, with “sprayed” for “sprayed to the point of run-off”, “grape” for “bluegrass”

## COCC(C)Nc1cc(-c2ccnc(Nc3cccc([N+](=O)[O-])c3)n2)ncn1 (stereo not shown) [Compound 107, N^6′-(2-methoxy-1-methylethyl)-N^2-(3-nitrophenyl) [4,4′-bipyrimidine]-2,6′-diamine]
[1]
  pest or weed control at 200 ppm: 28%
[2]
  pest or weed control at 200 ppm: 8%
[3]
  Test K disease control rating: 0%
[4]
  Test L disease control rating: 0%
[5]
  pest or weed control at 200 ppm: 94%
[6]
  pest or weed control at 200 ppm: 72%
[7]
  Test M disease control rating: 0%
[8]
  pest or weed control at 200 ppm: 89%
[9]
  pest or weed control at 200 ppm: 0%
[10]
  Test J disease control rating: 0%
[11]
  pest or weed control at 200 ppm: 100%

## COCC(C)Nc1cc(-c2ccnc(Nc3cccc(F)c3)n2)ncn1 (stereo not shown) [Compound 106, N^2-(3-fluorophenyl)-N^6′-(2-methoxy-1-methylethyl) [4,4′-bipyrimidine]-2,6′-diamine]
[1]
  pest or weed control at 200 ppm: 85%
[2]
  pest or weed control at 200 ppm: 17%
[3]
  Test K disease control rating: 0%
[4]
  Test L disease control rating: 0%
[5]
  pest or weed control at 200 ppm: 94%
[6]
  pest or weed control at 200 ppm: 37%
[7]
  Test M disease control rating: 0%
[8]
  pest or weed control at 200 ppm: 32%
[9]
  pest or weed control at 200 ppm: 24%
[10]
  Test J disease control rating: 0%
[11]
  pest or weed control at 200 ppm: 99%

## COCC(C)Nc1nccc(-c2ccnc(Nc3cccc(C#N)c3)c2)n1 (stereo not shown) [Compound 42]
[1]
  Test F disease control rating: 75%
[2]
  Test D disease control rating: 9%
[3]
  Test K disease control rating: 0%
[4]
  Test L disease control rating: 16%
[5]
  Test B disease control rating: 88%
[6]
  Test I disease control rating: 92%
[7]
  Test M disease control rating: 0%
[8]
  Test E disease control rating: 0%
[9]
  Test A disease control rating: 0%
[10]
  Test J disease control rating: 0%
[11]
  Test C disease control rating: 94%

## Cc1cc(C)c(Nc2cc(-c3ccnc(NC4CCOCC4)n3)ccn2)c(Cl)c1 [Compound 90]
[1]
  Test F disease control rating: 99%
[12]
  Test R disease control rating: 98%
[2]
  Test D disease control rating: 47%
[5]
  Test B disease control rating: 99%
[6]
  Test I disease control rating: 93%
[8]
  Test E disease control rating: 100%
[9]
  Test A disease control rating: 98%
[13]
  Test N disease control rating: 98%
[11]
  Test C disease control rating: 100%

## COCC(C)Nc1nccc(-c2ccnc(Nc3ccccc3)c2)n1 (stereo not shown) [Compound 43]
[1]
  Test F disease control rating: 92%
[3]
  Test K disease control rating: 0%
[4]
  Test L disease control rating: 0%
[5]
  Test B disease control rating: 99%
[6]
  Test I disease control rating: 90%
[7]
  Test M disease control rating: 0%
[8]
  Test E disease control rating: 100%
[9]
  Test A disease control rating: 29%
[10]
  Test J disease control rating: 9%
[11]
  Test C disease control rating: 99%
